Series [1] has as its system P388 ascitic leukemia. The series can be described thus: Effect against P388 leukemia in mice. Also noted: LTS (long term survivors) / Toxic deaths (evaluated on the basis of zooptic findings): dose or concentration left out as unconfirmed. The following applies: for antitumor activity (in words): P388 ascitic leukemia in mice. Here is the method: The activity of the compounds 4-demethoxy-4'-epi-11-deoxydaunorubicin and 4-demethoxy-deoxy-daunorubicin was also tested against P388 ascitic leukemia in mice.

The subject of series [2] is Hela cells. Briefly: Effect on Hela cells cloning activity (cytotoxic activity in vitro). It counts as cell-based. As to conditions: treatment for 24 hours; for IC50: read-out: Effect on Hela cells cloning activity, ID50; for Effect on Hela cells cloning activity, %: 1440 min; for activity at 0.1 µg/mL: dose 100 ng/ml. The protocol: The biological activity of the following compound was tested against Hela cells in vitro: […]

The mark [3] stands for this setting: Homo sapiens, HeLa, 24 h, dose 6.2 ng/ml.
The mark [4] stands for this setting: Homo sapiens, HeLa, 24 h, dose 25 ng/ml.

Values after ≈ are worked out from the molar mass of the structure shown. Values joined by “and” are separate entries in the source; they are usually repeats but may differ in a detail not shown here. Identical values can stand only once.

Turning to 4-demethoxy-deoxy-daunorubicin, in series [1], the “antitumor activity (in words)” value is reported as “exert antitumor activity”. Also, the “LTS (long term survivors)” value in series [1] (dose 4.4, ip on day 1) was 0/10; in series [1] (dose 6.6, ip on day 1), 0/10; in series [1] (dose 10, ip on day 1), 0/10. Moreover, the “Toxic deaths (evaluated on the basis of zooptic findings)” value (“Toxic deaths” for short) in series [1] (dose 4.4, ip on day 1) is 0/10; in series [1] (dose 6.6, ip on day 1), 7/10; in series [1] (dose 10, ip on day 1), 8/10.
Take `CC(=O)[C@]1(O)Cc2cc3c(c(O)c2[C@@H](O[C@H]2C[C@H](N)[C@@H](O)[C@H](C)O2)C1)C(=O)c1ccccc1C3=O` [4-demethoxy-4'-epi-11-deoxydaunorubicin]: the IC50 in series [2] (Homo sapiens, HeLa) worked out at 0.04 µg/mL (≈ 0.0831 µM). The “Effect on Hela cells cloning activity, %” value in series [2] (dose 1.5 ng/ml) was 78% and 109%; in series [2] (dose 6.2 ng/ml) it was 60% and 105%; in series [2] (dose 25 ng/ml), 56% and 82%. Besides, the “antitumor activity (in words)” value in series [1] is on record as “exert antitumor activity”. The “LTS (long term survivors)” value is 0/10 in series [1] (dose 6.6, ip on day 1); 0/10 in series [1] (dose 10, ip on day 1); 0/10 in series [1] (dose 15, ip on day 1). The “Toxic deaths” value is reported as 0/10 in series [1] (dose 6.6, ip on day 1); 0/10 in series [1] (dose 10, ip on day 1); 0/10 in series [1] (dose 15, ip on day 1).
Regarding `CC(=O)[C@]1(O)Cc2c(cc3c(c2O)C(=O)c2ccccc2C3=O)[C@@H](O[C@H]2C[C@H](N)[C@H](O)[C@H](C)O2)C1` [4-demethoxy-6-deoxydaunorubicin], the activity at 0.005 µg/mL in series [2] (Homo sapiens, HeLa, 24 h, dose 5 ng/ml) was found to be 119%. The activity at 0.01 µg/mL in series [2] (Homo sapiens, HeLa, 24 h, dose 10 ng/ml) worked out at 73%. Also, in series [2] (Homo sapiens, HeLa, 24 h, dose 50 ng/ml), the activity at 0.05 µg/mL was 4%. For the same compound, the activity at 0.25 µg/mL in series [2] (Homo sapiens, HeLa, 24 h, dose 250 ng/ml) amounted to 0%. Besides, the IC50 in series [2] (Homo sapiens, HeLa) came out at 0.017 µg/mL (≈ 0.0353 µM).
In the case of `C[C@@H]1O[C@@H](O[C@H]2C[C@](O)(C(=O)CO)Cc3cc4c(c(O)c32)C(=O)c2ccccc2C4=O)C[C@H](N)[C@H]1O` [4-demethoxy-11-deoxy-4'-epidoxorubicin], the activity at 0.0062 µg/mL in series [2] (setting [3]) was determined as 100%. In addition, the activity at 0.025 µg/mL in series [2] (setting [4]) was determined as 33%. Also, in series [2] (Homo sapiens, HeLa, 24 h), the activity at 0.1 µg/mL was 1%. Besides, the activity at 0.4 µg/mL in series [2] (Homo sapiens, HeLa, 24 h, dose 400 ng/ml) came out at 0%. For the same compound, the IC50 in series [2] (Homo sapiens, HeLa) was found to be 0.02 µg/mL (≈ 0.0402 µM).
Take `CC(=O)[C@]1(O)Cc2cc3c(c(O)c2[C@@H](O[C@H]2C[C@H](N)[C@H](O)[C@H](C)O2)C1)C(=O)c1ccccc1C3=O` [4-demethoxy-11-deoxydaunorubicin]: the activity at 0.0062 µg/mL in series [2] (setting [3]) is 112%. For the same compound, in series [2] (setting [4]), the activity at 0.025 µg/mL was 50%. In addition, in series [2] (Homo sapiens, HeLa, 24 h), the activity at 0.1 µg/mL is 0%. Besides, in series [2] (Homo sapiens, HeLa), the IC50 turned out to be 0.025 µg/mL (≈ 0.0519 µM).
`COc1cccc2c1C(=O)c1c(O)c3c(c(O)c1C2=O)C[C@@](O)(C(C)=O)C[C@@H]3O[C@H]1C[C@H](N)[C@H](O)[C@H](C)O1` [Daunorubicin, reference compound]: the activity at 0.0031 µg/mL in series [2] (Homo sapiens, HeLa, 24 h, dose 3.1 ng/ml) is 104%. In addition, the activity at 0.0125 µg/mL in series [2] (Homo sapiens, HeLa, 24 h, dose 12.5 ng/ml) was 65%. Further, the IC50 in series [2] (Homo sapiens, HeLa) was 0.015 µg/mL (≈ 0.0284 µM). Also, the “Effect on Hela cells cloning activity, %” value in series [2] (dose 3.1 ng/ml) is 115%; in series [2] (dose 6.2 ng/ml) it was 86% and 150% and 93% and 101%; in series [2] (dose 12.5 ng/ml), 83% and 80% and 77% and 79%. Also, the “LTS (long term survivors)” value in series [1] (dose 2.9, ip on day 1) was 0/10; in series [1] (dose 4.4, ip on day 1), 0/10; in series [1] (dose 6.6, ip on day 1), 0/10. Moreover, the “Toxic deaths” value in series [1] (dose 2.9, ip on day 1) is listed as 0/10; in series [1] (dose 4.4, ip on day 1), 0/10; in series [1] (dose 6.6, ip on day 1) it was 3/10.

(Values after US4600537A, “Preparation of (±) 4-demethoxy-6 (and-11-)-deoxydaunomycinone” (Farmitalia Carlo Erba S.p.A., priority 1981, dated 1986).)
